From US20250171459A1, “2-METHYL-4',5'-DIHYDROSPIRO[PIPERIDINE-4,7'-THIENO[2,3-C]PYRAN] DERIVATIVES AS INHIBITORS OF APOL1 AND METHODS OF USING SAME” (Vertex Pharmaceuticals Incorporated, priority 2022, published 2025)

Target: T1, APOL1 (Homo sapiens, UniProt O14791)
T1 sequence (O14791 1-398 S342G/I384M): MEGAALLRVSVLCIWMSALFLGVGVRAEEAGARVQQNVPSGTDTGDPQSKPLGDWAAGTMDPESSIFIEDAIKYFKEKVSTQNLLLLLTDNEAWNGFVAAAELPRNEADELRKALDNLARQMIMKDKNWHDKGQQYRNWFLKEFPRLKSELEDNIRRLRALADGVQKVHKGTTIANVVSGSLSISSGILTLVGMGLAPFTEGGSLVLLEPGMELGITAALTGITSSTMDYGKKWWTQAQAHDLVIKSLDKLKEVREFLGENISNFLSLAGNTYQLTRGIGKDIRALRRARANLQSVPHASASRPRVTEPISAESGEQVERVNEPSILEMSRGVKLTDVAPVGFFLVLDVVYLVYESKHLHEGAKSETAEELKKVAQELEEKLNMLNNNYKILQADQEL
Test: MultiTox-Fluor Multiplex Cytotoxicity Assay in tet-inducible APOL1 T-REx-HEK293 cells (cell rescue, ratio of dead to live cells)
Assay type: cell-based
Settings: tet-inducible transgenic APOL1 T-REx-HEK293 cell lines, 50 ng/mL tet, 24 hours; read-out: IP50 (i.e., IC50 for cell proliferation)
Description: The MultiTox-Fluor Multiplex Cytotoxicity Assay is a single-reagent-addition, homogeneous, fluorescence assay that measures the number of live and dead cells simultaneously in culture wells. The assay measures cell viability and cytotoxicity by detecting two distinct protease activities. […] The substrate enters intact cells, where it is cleaved to generate a fluorescent signal proportional to the number of living cells. […] A ratio of dead to live cells is used to normalize data.
The MultiTox reagent was added to each well and placed back in the incubator for an additional 30 minutes. The plate was read on the EnVision plate reader. A ratio of dead to live cells was used to normalize, and data was imported, analyzed, and fit using Genedata Screener (Basel, Switzerland) software. Data was normalized using percent of control, no tet (100% viability), and 50 ng/mL tet treated (0% viability), and fit using Smart Fit. The reagents, methods, and complete protocol for the MultiTox assay are described below.
Cells were washed with DPBS and then trypsinized to dissociate from the flask. Media was used to quench the trypsin, cells were then pelleted at 200 g and resuspended in fresh cell assay media (DMEM, 2% Tet-free FBS, 2 mM L-glutamine, 100 Units/mL penicillin-streptomycin). […] The plates were then incubated at room temperature for one hour.
Tetracycline is needed to induce APOL1 expression. 1 mg/mL tet stock in water was diluted to 250 ng/mL (5×) in cell assay media.
Compounds were dispensed at 200 nL in DMSO. The final top concentration was 10 μM with a 10 point 3-fold dilution in duplicate in the MultiTox assay.
20 μL was transferred from the 5× tet plate to the ARP and mixed, then 5 μL of 5× tet and the compounds were transferred to the cell plate and mixed using the Bravo. The cell plate was placed in the humidified 37° C. 5% CO2 incubator for 24 hours.
The MultiTox-Fluor Multiplex Cytotoxicity Assay was performed in accordance with the manufacturer's protocol. After cells were incubated with tet and compound for 24 hours, 25 μL of 1× MultiTox reagent was added to each well using the Multidrop dispenser; the plates were placed on a plate shaker (600 rpm) for 2 minutes, then centrifuged briefly and placed back in the 37° C. incubator for 30 minutes. The cell viability (excitation: 400 nm, emission: 486 nm) and cytotoxicity (excitation: 485 nm, emission: 535 nm) were read using the EnVision plate reader. A ratio of dead (cytotoxicity) to live (viability) cells was reported. Data was exported and analyzed in Genedata. Data was normalized using percent of control, no tet (100% viability), and 50 ng/mL tet treated (0% viability), and fit using Smart Fit settings in Genedata.

Structure (SMILES)	IC50
CCc1cc2c(s1)CCO[C@@]21CCN(CC2CN(S(=O)(=O)c3c[nH]cn3)C2)[C@@H](C)C1 [Compound 496]	500 to 1000 nM
Cc1cncc(CN2CC[C@]3(C[C@@H]2C)OCCc2cc(Cl)sc23)c1 [Compound 649]	100 to 500 nM
CCc1cc2c(s1)CCO[C@@]21CCN(Cc2cn(CC3(C4(O)CCOCC4)CC3)nn2)[C@@H](C)C1 [Compound 103]	100 to 500 nM
C[C@H]1C[C@@]2(CCN1Cc1cnn(CCS(C)(=O)=O)c1)OCCc1cc(CC(F)(F)F)sc12 [Compound 1032, (2′S, 7R)-2′-methyl-1′-[[1-(2-methylsulfonylethyl)pyrazol-4-yl]methyl]-2-(2,2,2-trifluoroethyl)spiro[4,5-dihydrothieno[2,3-c]pyran-7,4′-piperidine]]	< 100 nM
C[C@H]1C[C@@]2(CCN1Cc1cnn(CC(C)(O)CO)c1)OCCc1c2sc(C(F)(F)F)c1CO (some centres unmarked) [Compound 936]	< 100 nM
CCc1cc2c(s1)CCO[C@@]21CCN(C[C@H]2C[C@H](NC(=O)OC(C)(C)C)C2)[C@@H](C)C1 [Compound 418, tert-butyl N-[3-[[(2′S,4R)-2-ethyl-2′-methyl-spiro[6,7-dihydrothieno[3,2-c]pyran-4,4′-piperidine]-1′-yl]methyl]cyclobutyl]carbamate]	100 to 500 nM
CCc1cc2c(s1)CCOC21CCN(Cc2cn(CCC(=O)NCCC(F)(F)F)nn2)CC1 [Compound 1100]	500 to 1000 nM
CCc1cc2c(s1)CCOC21CCN(Cc2cn(CC(O)CO)nn2)C(C)C1 (centres unmarked) [Compound 143]	< 100 nM
CCc1cc2c(s1)CCO[C@@]21CCN(Cc2cn(Cc3nccn3C)nn2)[C@@H](C)C1 [Compound 56]	< 100 nM
COCCn1cc(CN2CC[C@]3(C[C@@H]2C)OCCc2c3sc(C(F)(F)F)c2CO)cn1 [Compound 906]	< 100 nM
CC(O)Cn1cc(CN2CC[C@]3(C[C@@H]2C)OCCc2c3sc(C(F)(F)F)c2CO)nn1 (some centres unmarked) [Compound 1002]	< 100 nM
CCc1cc2c(s1)CCO[C@@]21CCN(Cc2cn(-c3cncnc3)nn2)[C@@H](C)C1 [Compound 72]	< 100 nM
CC(O)CCN1CC[C@]2(C[C@@H]1C)OCCc1cc(Cl)sc12 (some centres unmarked) [Compound 643]	500 to 1000 nM
CCc1cc2c(s1)CCO[C@@]21CCN(Cc2cn(C(C)COC)nn2)[C@@H](C)C1 (some centres unmarked) [Compound 130]	100 to 500 nM
CCc1cc2c(s1)CCO[C@@]21CCN(CC2CN(C(=O)c3ncccc3O)C2)[C@@H](C)C1 [Compound 423, [3-[[(2′S,4R)-2-ethyl-2′-methyl-spiro[6,7-dihydrothieno[3,2-c]pyran-4,4′-piperidine]-1′-yl]methyl]azetidin-1-yl]-(3-hydroxy-2-pyridyl)methanone]	< 100 nM
CCc1cc2c(s1)CCOC21CCN(Cc2ccc(C(=O)NC(C)CCO)nc2)CC1 (centres unmarked) [Compound 1054]	< 100 nM
CCc1cc2c(s1)CCOC21CCN(Cc2ccc(OC)nc2)CC1 [Compound 1157]	100 to 500 nM
C[C@H]1C[C@@]2(CCN1Cc1cnn(CC(O)C3CCCO3)c1)OCCc1c2sc(C(F)(F)F)c1CO (some centres unmarked) [Compound 964]	< 100 nM
CCc1cc2c(s1)CCO[C@@]21CCN(Cc2cnc(NC34CCC(CO)(C3)C4)nc2)[C@@H](C)C1 [Compound 210]	< 100 nM
C[C@H]1C[C@@]2(CCN1Cc1cn(C3CCOCC3)nn1)OCCc1c2sc(C(F)(F)F)c1CO [Compound 1004]	100 to 500 nM
C[C@H]1C[C@@]2(CCN1Cc1cnn(C[C@@H](O)C(=O)N(C)C)c1)OC[C@@H](O)c1cc(C(F)(F)F)sc12 [Compound 994]	< 100 nM
C[C@H]1C[C@@]2(CCN1Cc1ccccn1)OCCc1cc(Cl)sc12 [Compound 668]	500 to 1000 nM
CCc1cc2c(s1)CCO[C@@]21CCN(C[C@H]2C[C@@H](NC(=O)c3ccnc(C)n3)C2)[C@@H](C)C1 [Compound 324]	< 100 nM
CCc1cc2c(s1)CCOC21CCN(Cc2cn([C@H]3CC[C@@H]3O)nn2)CC1 [Compound 1098]	500 to 1000 nM
CCc1cc2c(s1)CCO[C@@]21CCN(Cc2cn(CCOCCOCCO)nn2)[C@@H](C)C1 [Compound 195]	100 to 500 nM
CCc1cc2c(s1)CCOC21CCN(Cc2cn(CC(=O)NC)nn2)CC1 [Compound 1107]	500 to 1000 nM
